{
  "source": "patent US6737383B1",
  "about": "“Herbicidal oxadiazolidines” (priority 1999, dated 2004)",
  "key": {"velvetleaf": {"tested_on": "velvetleaf", "experiment": "Test B pre/postemergence velvetleaf", "format": "in vivo, Abutilon theophrasti", "in_short": "(§1)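 Response is a visual 0-to-10 score relative to untreated plants, where 0 means no effect and 10 means complete control, taken twelve to sixteen days after application. Treatments went onto soil at planting and onto foliage of 1- to 4-leaf plants, using a surfactant-containing non-phytotoxic solvent.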"}, "soybean": {"tested_on": "soybean", "experiment": "Test B pre/postemergence soybean", "format": "in vivo, Glycine max", "in_short": "as §1"}, "smallflower flatsedge": {"tested_on": "smallflower flatsedge", "experiment": "Test B flood test smallflower flatsedge", "format": "in vivo, Cyperus difformis", "conditions": "for Plant response rating, S. Flatsedge (0 to 10 scale, 0 is no effect, 10 is complete control) / S. Flatsedge plant response rating (0 to 10 scale, 0 is no effect, 10 is complete control): visual evaluation after twelve to sixteen days; for S. Flatsedge plant response rating (0 to 10 scale, 0 is no effect, 10 is complete control): under heading Pre-emergence", "in_short": "(§2)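 Flood test on plants grown to the 2-leaf stage; treated plants kept in greenhouse twelve to sixteen days, then visually rated against controls on a 0 (no effect) to 10 (complete control) scale.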"}, "duck salad": {"tested_on": "duck salad", "experiment": "Test B flood test duck salad", "format": "in vivo, Heteranthera limosa", "conditions": "for Plant response rating, Ducksalad (0 to 10 scale, 0 is no effect, 10 is complete control) / Ducksalad plant response rating (0 to 10 scale, 0 is no effect, 10 is complete control): visual evaluation after twelve to sixteen days; for Ducksalad plant response rating (0 to 10 scale, 0 is no effect, 10 is complete control): under heading Pre-emergence", "in_short": "as §2"}, "[1]": {"conditions": "Preemergence, Rate 62 g/ha, scale of 0 to 10 where 0 is no effect and 10 is complete control"}, "[2]": {"conditions": "Preemergence, Rate 250 g/ha, scale 0 to 10, 0 is no effect, 10 is complete control"}, "[3]": {"conditions": "Preemergence, Rate 500 g/ha, scale 0 to 10 (0 no effect, 10 complete control)"}, "[4]": {"conditions": "Rate 125 g/ha, Postemergence, scale 0 to 10"}, "[5]": {"conditions": "Rate 500 g/ha, Postemergence, scale 0 to 10"}, "[6]": {"conditions": "Rate 62 g/ha, Postemergence, scale of 0 to 10 where 0 is no effect and 10 is complete control"}, "[7]": {"conditions": "Rate 62 g/ha, headed Pre-emergence (flood test species), scale 0 to 10 (0 no effect, 10 complete control)"}, "[8]": {"conditions": "Rate 125 g/ha, Pre-emergence, flood test species, scale 0 to 10 where 0 is no effect and 10 is complete control"}, "[9]": {"conditions": "Rate 250 g/ha, Pre-emergence, flood-test species, scale 0 to 10, 0 is no effect, 10 is complete control"}, "[10]": {"conditions": "Rate 500 g/ha, Pre-emergence, flood test species, scale 0 to 10 (0 no effect, 10 complete control)"}, "[11]": {"conditions": "Postemergence, Rate 125 g/ha, scale 0 to 10, 0 is no effect, 10 is complete control"}, "[12]": {"conditions": "Postemergence, Rate 250 g/ha, scale 0 to 10, 0 is no effect, 10 is complete control"}, "[13]": {"conditions": "Preemergence, Rate 62 g/ha, scale 0 to 10 (0 no effect, 10 complete control)"}, "[14]": {"conditions": "Preemergence, Rate 250 g/ha, scale of 0 to 10 where 0 is no effect and 10 is complete control"}, "[15]": {"conditions": "Preemergence, Rate 500 g/ha, scale of 0 to 10 where 0 is no effect and 10 is complete control"}, "[16]": {"conditions": "Rate 500 g/ha, Postemergence, scale 0 to 10, 0 no effect, 10 complete control"}, "[17]": {"conditions": "Rate 62 g/ha, flood test species, Pre-emergence"}, "[18]": {"conditions": "Rate 125 g/ha, flood test species"}, "[19]": {"conditions": "Postemergence, Rate 250 g/ha, scale 0 to 10"}, "[20]": {"conditions": "Preemergence, Rate 125 g/ha, scale of 0 to 10 where 0 is no effect and 10 is complete control"}, "[21]": {"conditions": "Preemergence, Rate 500 g/ha, scale 0 to 10, 0 is no effect, 10 is complete control"}, "[22]": {"conditions": "Rate 62 g/ha, Postemergence, scale 0 to 10, 0 no effect, 10 complete control"}, "[23]": {"conditions": "Rate 125 g/ha, Postemergence, scale 0 to 10, 0 is no effect, 10 is complete control"}, "[24]": {"conditions": "Rate 250 g/ha, Pre-emergence (flood test species), scale 0 to 10, 0 is no effect, 10 is complete control"}},
  "data": [
    {"smiles": "COc1nc(OC)nc(N(C(=O)n2oc(=O)n(-c3c(C)cccc3C)c2=O)C(C)C)n1", "note": "[Compound 180]", "values": [
      {"measurement": "Velvetleaf plant response rating", "setting": "velvetleaf; [1]", "value": 0},
      {"measurement": "Velvetleaf plant response rating", "setting": "velvetleaf; [2]", "value": 0},
      {"measurement": "Velvetleaf plant response rating", "setting": "velvetleaf; [3]", "value": 0},
      {"measurement": "Velvetleaf plant response rating", "setting": "velvetleaf; [4]", "value": 0},
      {"measurement": "Plant response rating (0 to 10; 0 is no effect, 10 is complete control), Velvetleaf", "setting": "velvetleaf; Rate 250 g/ha, Postemergence", "value": 0},
      {"measurement": "Velvetleaf plant response rating", "setting": "velvetleaf; [5]", "value": 0},
      {"measurement": "Soybean plant response rating", "setting": "soybean; [1]", "value": 0},
      {"measurement": "Soybean plant response rating (0 to 10 scale)", "setting": "soybean; Preemergence, Rate 125 g/ha, 0 is no effect, 10 is complete control", "value": 0},
      {"measurement": "Soybean plant response rating", "setting": "soybean; [2]", "value": 0},
      {"measurement": "Soybean plant response rating", "setting": "soybean; [3]", "value": 0},
      {"measurement": "Soybean plant response rating", "setting": "soybean; [6]", "value": 0},
      {"measurement": "Soybean plant response rating", "setting": "soybean; [4]", "value": 0},
      {"measurement": "Plant response rating (0 to 10; 0 is no effect, 10 is complete control), Soybean", "setting": "soybean; Rate 250 g/ha, Postemergence", "value": 0},
      {"measurement": "Soybean plant response rating", "setting": "soybean; [5]", "value": 0},
      {"measurement": "S. Flatsedge plant response rating", "setting": "smallflower flatsedge; [7]", "value": 0},
      {"measurement": "S. Flatsedge plant response rating", "setting": "smallflower flatsedge; [8]", "value": 0},
      {"measurement": "S. Flatsedge plant response rating", "setting": "smallflower flatsedge; [9]", "value": 0},
      {"measurement": "S. Flatsedge plant response rating", "setting": "smallflower flatsedge; [10]", "value": 0},
      {"measurement": "Ducksalad plant response rating", "setting": "duck salad; [7]", "value": 0},
      {"measurement": "Ducksalad plant response rating", "setting": "duck salad; [8]", "value": 0},
      {"measurement": "Ducksalad plant response rating", "setting": "duck salad; [9]", "value": 0},
      {"measurement": "Plant response rating, Ducksalad", "setting": "duck salad; Rate 500 g/ha, headed Pre-emergence (flood test species), scale 0 to 10 (0 no effect, 10 complete control)", "value": 0}
    ]},
    {"smiles": "CC(C)N(C(=O)n1oc(=O)n(N2CCOCC2)c1=O)c1ccc(F)cc1F", "note": "[Compound 384]", "values": [
      {"measurement": "Plant response rating, Velvetleaf", "setting": "velvetleaf; [11]", "value": 0},
      {"measurement": "Plant response rating, Velvetleaf", "setting": "velvetleaf; [12]", "value": 0},
      {"measurement": "Plant response rating, Velvetleaf", "setting": "velvetleaf; [13]", "value": 0},
      {"measurement": "Velvetleaf plant response rating (0 to 10 scale)", "setting": "velvetleaf; Preemergence, Rate 125 g/ha", "value": 0},
      {"measurement": "Velvetleaf plant response rating", "setting": "velvetleaf; [14]", "value": 1},
      {"measurement": "Velvetleaf plant response rating", "setting": "velvetleaf; [15]", "value": 3},
      {"measurement": "Velvetleaf plant response rating", "setting": "velvetleaf; [6]", "value": 0},
      {"measurement": "Plant response rating, Velvetleaf", "setting": "velvetleaf; [16]", "value": 0},
      {"measurement": "Plant response rating, Soybean", "setting": "soybean; [11]", "value": 2},
      {"measurement": "Plant response rating, Soybean", "setting": "soybean; [12]", "value": 3},
      {"measurement": "Plant response rating, Soybean", "setting": "soybean; [13]", "value": 0},
      {"measurement": "Soybean plant response rating (0 to 10 scale)", "setting": "soybean; Preemergence, Rate 125 g/ha", "value": 0},
      {"measurement": "Soybean plant response rating", "setting": "soybean; [14]", "value": 0},
      {"measurement": "Soybean plant response rating", "setting": "soybean; [15]", "value": 3},
      {"measurement": "Soybean plant response rating", "setting": "soybean; [6]", "value": 1},
      {"measurement": "Plant response rating, Soybean", "setting": "soybean; [16]", "value": 3},
      {"measurement": "Plant response rating, S. Flatsedge (0 to 10 scale, 0 is no effect, 10 is complete control)", "setting": "smallflower flatsedge; [17]", "value": 0},
      {"measurement": "S. Flatsedge plant response rating (0 to 10 scale, 0 is no effect, 10 is complete control)", "setting": "smallflower flatsedge; [18]", "value": 0},
      {"measurement": "S. Flatsedge plant response rating", "setting": "smallflower flatsedge; [9]", "value": 0},
      {"measurement": "S. Flatsedge plant response rating", "setting": "smallflower flatsedge; [10]", "value": 0},
      {"measurement": "Plant response rating, Ducksalad (0 to 10 scale, 0 is no effect, 10 is complete control)", "setting": "duck salad; [17]", "value": 0},
      {"measurement": "Ducksalad plant response rating (0 to 10 scale, 0 is no effect, 10 is complete control)", "setting": "duck salad; [18]", "value": 0},
      {"measurement": "Ducksalad plant response rating", "setting": "duck salad; [9]", "value": 0},
      {"measurement": "Ducksalad plant response rating", "setting": "duck salad; [10]", "value": 0}
    ]},
    {"smiles": "CC(C)N(C(=O)n1oc(=O)n(COCC[Si](C)(C)C)c1=O)c1ccc(Cl)cc1", "note": "[Compound 467]", "values": [
      {"measurement": "Velvetleaf plant response rating", "setting": "velvetleaf; [19]", "value": 0},
      {"measurement": "Plant response rating, Velvetleaf", "setting": "velvetleaf; [1]", "value": 0},
      {"measurement": "Plant response rating, Velvetleaf", "setting": "velvetleaf; [20]", "value": 0},
      {"measurement": "Velvetleaf plant response rating", "setting": "velvetleaf; [2]", "value": 0},
      {"measurement": "Velvetleaf plant response rating", "setting": "velvetleaf; [21]", "value": 1},
      {"measurement": "Velvetleaf plant response rating", "setting": "velvetleaf; [22]", "value": 0},
      {"measurement": "Velvetleaf plant response rating", "setting": "velvetleaf; [23]", "value": 0},
      {"measurement": "Soybean plant response rating", "setting": "soybean; [19]", "value": 0},
      {"measurement": "Plant response rating, Soybean", "setting": "soybean; [20]", "value": 0},
      {"measurement": "Soybean plant response rating", "setting": "soybean; [2]", "value": 0},
      {"measurement": "Soybean plant response rating", "setting": "soybean; [21]", "value": 0},
      {"measurement": "Soybean plant response rating", "setting": "soybean; [22]", "value": 0},
      {"measurement": "Soybean plant response rating", "setting": "soybean; [23]", "value": 0},
      {"measurement": "Plant response rating, S. Flatsedge (0 to 10 scale, 0 is no effect, 10 is complete control)", "setting": "smallflower flatsedge; [17]", "value": 0},
      {"measurement": "S. Flatsedge plant response rating (0 to 10 scale, 0 is no effect, 10 is complete control)", "setting": "smallflower flatsedge; [18]", "value": 0},
      {"measurement": "S. Flatsedge plant response rating", "setting": "smallflower flatsedge; [24]", "value": 0},
      {"measurement": "S. Flatsedge plant response rating", "setting": "smallflower flatsedge; [10]", "value": 0},
      {"measurement": "Plant response rating, Ducksalad (0 to 10 scale, 0 is no effect, 10 is complete control)", "setting": "duck salad; [17]", "value": 0},
      {"measurement": "Ducksalad plant response rating (0 to 10 scale, 0 is no effect, 10 is complete control)", "setting": "duck salad; [18]", "value": 0},
      {"measurement": "Ducksalad plant response rating", "setting": "duck salad; [24]", "value": 0},
      {"measurement": "Ducksalad plant response rating", "setting": "duck salad; [10]", "value": 0}
    ]}
  ]
}
